Measured values as given in article PMC11078216, “Discovery of potent and selective activity-based probes (ABPs) for the deubiquitinating enzyme USP30” (RSC Chemical Biology, 2024).
pIC50: −log10 of the molar value.

Molecular target: T1, USP30 (Homo sapiens, UniProt Q70CQ3)
T1 construct: Catalog #E-582 residues 57-517; purchased E-582
T1 sequence (Q70CQ3 57-517): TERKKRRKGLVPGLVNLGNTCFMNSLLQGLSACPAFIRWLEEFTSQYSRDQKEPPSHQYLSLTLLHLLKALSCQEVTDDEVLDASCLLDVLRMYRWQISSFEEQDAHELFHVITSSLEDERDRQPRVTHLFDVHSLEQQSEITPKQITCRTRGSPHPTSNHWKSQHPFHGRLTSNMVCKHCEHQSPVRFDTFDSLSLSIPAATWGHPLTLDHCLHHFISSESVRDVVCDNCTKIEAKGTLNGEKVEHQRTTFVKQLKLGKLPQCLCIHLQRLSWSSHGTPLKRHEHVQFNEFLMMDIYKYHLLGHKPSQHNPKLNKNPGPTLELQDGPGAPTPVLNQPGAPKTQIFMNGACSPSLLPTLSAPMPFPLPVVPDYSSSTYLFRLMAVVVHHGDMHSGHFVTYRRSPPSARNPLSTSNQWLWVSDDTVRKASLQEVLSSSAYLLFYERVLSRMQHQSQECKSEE
Experiment: USP30 biochemical IC50 fluorescence polarisation assay using Ub-Lys(TAMRA)-Gly
Conditions: 30 min incubation, USP30 5 nM, Ub-Lys(TAMRA)-Gly 100 nM; read-out: IC50 against USP30
Method: We first confirmed biochemical inhibition of USP30 with our probes in a fluorescence polarisation (FP) assay using a TAMRA labelled Lys-Gly dipeptide linked to ubiquitin via an isopeptide bond (Ub-Lys(TAMRA)-Gly). USP30 (5 nM) was incubated across a concentration series of test compound for 30 min, followed by FP measurement after addition of Ub-Lys(TAMRA)-Gly (100 nM).
4. Biochemical and biological methods and proteomics
1) Biochemical USP30 fluorescence polarisation (FP) assay using Ub-Lys(TAMRA)-Gly a. USP30 biochemical IC50 assay
Reactions were performed in triplicate in black 384 well plates (Greiner #784076) in a final reaction volume of 21 μL. Compound dilutions were prepared at 21× final concentration (2000 nM for a final concentration of 100 nM) in 50% DMSO/water. USP30 was diluted in reaction buffer A (40 mM Tris, pH 7.5, 0.005% Tween 20, 0.5 mg/ml BSA, 5 mM betamercaptoethanol) and 10 μL of diluted 10.5 nM USP30 was added to the compound (final concentration 5 nM). Enzyme and compound were incubated for 30 min at room temperature. Reactions were initiated by the addition of 10 ul 200 nM (final concentration 100 nM) of TAMRA labeled peptide linked to ubiquitin via an iso-peptide bond (Ub-Lys(TAMRA)-Gly, UbiQ-012). Reactions were read immediately after substrate addition using a Pherastar Plus (BMG Labtech; λEx 531 nm, λEm 579 nm). IC50 values were determined by plotting percentage USP30 activity against compound concentration and fitting a four -parameter dose-response curve (Graphpad Prism 5.03). […]
Kinetic progress curves were fitted to equation y = (vi/kobs) (1 − exp(−kobs*x)) to determine the kobs value (for first 30 min data). The kobs value was then plotted against the inhibitor concentration to […]

Compound	pIC50
N#CN1CC[C@@H](NC(=O)c2cc(-c3ccccc3Oc3ccc(N=[N+]=[N-])cc3)n[nH]2)C1 [IMP-2586]	7.79
C#Cc1cccc(-c2cc(NC(=O)CC3CCN(C#N)C3)on2)c1 (stereo not shown) [IMP-2587]	7.90
N#CN1CC[C@H](CC(=O)Nc2cc(-c3cccc(Cl)c3)no2)C1 [compound 1, reference compound]	7.74
N#CN1CC[C@@H](NC(=O)c2cc(-c3ccccc3Oc3ccccc3)n[nH]2)C1 [compound 3, reference compound]	8.32
